Measured values: ChEMBL document CHEMBL1909498, “Secoiridoid glucosides and related compounds from Syringa reticulata and their antioxidant activities” (Bioorg Med Chem Lett, 2011)

Assays:
[1] = tested on: Radical scavenging activity; experiment: Antioxidant activity assessed as DPPH radical scavenging activity after 30 mins by spectrophotometric analysis; format: functional
[2] = Antioxidant activity assessed as superoxide radical scavenging activity after 20 mins by spectrophotometric analysis; format: functional

Row | Compound | EC50 [1] [µM] | EC50 [2] [µM]
1 | COc1cc(/C=C/C=O)cc(OC)c1O[C@@H]1O[C@H](CO)[C@@H](O)[C@H](O)[C@H]1O [SINAPALDEHYDE GLUCOSIDE] | > 100 | > 100
2 | COc1cc(/C=C/CO)cc(OC)c1O[C@@H]1O[C@H](CO)[C@@H](O)[C@H](O)[C@H]1O [SYRINGIN] | > 100 | 70.9
3 | C/C=C1/[C@H](O[C@@H]2O[C@H](CO)[C@@H](O)[C@H](O)[C@H]2O)OC=C(C(=O)OC)[C@H]1CC(=O)OC[C@H]1O[C@@H](O[C@@H]2OC=C(C(=O)OC)[C@@H](CC(=O)OCCc3ccc(O)c(O)c3)/C2=C\C)[C@H](O)[C@@H](O)[C@@H]1O [JASPOLYOSIDE] | > 100 | 4.97
4 | COc1cc(C[C@@H]2CO[C@@H](c3cc(OC)c(O)c(OC)c3)[C@@H]2CO)ccc1O[C@@H]1O[C@H](CO)[C@@H](O)[C@H](O)[C@H]1O [ARMANDISIDE] | > 100 | 10.6
5 | COc1cc([C@H]2OC[C@H]3[C@@H]2CO[C@@H]3c2cc(OC)c(O[C@@H]3O[C@H](CO)[C@@H](O)[C@H](O)[C@H]3O)c(OC)c2)cc(OC)c1O[C@H]1O[C@@H](CO)[C@H](O)[C@@H](O)[C@@H]1O [LIRIODENDRTACHIOSIDE] | > 100 | 16
6 | COc1cc(/C=C/C=O)ccc1O[C@@H]1O[C@H](CO)[C@@H](O)[C@H](O)[C@H]1O [CONIFERYALDEHYDE GLUCOSIDE] | > 100 | > 100
7 | C/C=C1/[C@H](O[C@@H]2O[C@H](CO)[C@@H](O)[C@H](O)[C@H]2O)OC=C(C(=O)OC)[C@H]1CC(=O)OC[C@H]1O[C@@H](Oc2c(OC)cc(/C=C/CO)cc2OC)[C@H](O)[C@@H](O)[C@@H]1O [RETICULOSIDE] | > 100 | 64.1
8 | COc1cc([C@H]2c3cc(O[C@@H]4O[C@H](CO)[C@@H](O)[C@H](O)[C@H]4O)c(OC)cc3C[C@@](O)(CO)[C@@H]2CO)ccc1O | > 100 | 39.3
9 | COc1cc([C@H]2OC[C@H]3[C@@H]2CO[C@@H]3c2cc(OC)c(O[C@@H]3O[C@H](CO)[C@@H](O)[C@H](O)[C@H]3O)c(OC)c2)cc(OC)c1O | > 100 | > 100

Continued, values first:

Row | EC50 [1] [µM] | EC50 [2] [µM] | Compound
10 | 33 | 4.97 | OC[C@H]1O[C@@H](OCCc2ccc(O)c(O)c2)[C@H](O)[C@@H](O)[C@@H]1O
11 | > 100 | > 100 | COc1cc(C[C@]2(O)CO[C@@H](c3ccc(O[C@H]4O[C@@H](CO)[C@H](O)[C@@H](O)[C@@H]4O)c(OC)c3)[C@@H]2CO)ccc1O
12 | > 100 | 25.3 | COc1cc([C@@H]2OC[C@@](O)(Cc3ccc(O[C@@H]4O[C@H](CO)[C@@H](O)[C@H](O)[C@H]4O)c(OC)c3)[C@H]2CO)ccc1O
13 | > 100 | 18.6 | COc1cc([C@H]2OC[C@H]3[C@@H]2CO[C@@H]3c2ccc(O[C@@H]3O[C@H](CO)[C@@H](O)[C@H](O)[C@H]3O)c(OC)c2)ccc1O
14 | > 100 | > 100 | OC[C@H]1O[C@@H](OCCc2ccc(O)cc2)[C@H](O)[C@@H](O)[C@@H]1O [SALIDROSIDE]
15 | > 100 | > 100 | C/C=C1/[C@H](O[C@@H]2O[C@H](CO)[C@@H](O)[C@H](O)[C@H]2O)OC=C(C(=O)OC)[C@H]1CC(=O)OCCc1ccc(O)cc1 [LIGSTROSIDE]
16 | 20.8 | 2.57 | C/C=C1/[C@H](O[C@@H]2O[C@H](CO)[C@@H](O)[C@H](O)[C@H]2O)OC=C(C(=O)OC)[C@H]1CC(=O)OCCc1ccc(O)c(O)c1 [OLEUROPEIN]
17 | > 100 | 14.1 | COc1cc(/C=C/CO[C@H]2O[C@@H](CO)[C@H](O)[C@@H](O)[C@@H]2O)cc(OC)c1O[C@@H]1O[C@H](CO)[C@@H](O)[C@H](O)[C@H]1O [ISOSYRINGINOSIDE]
